Laboratory results: patent publication US4011330A, “Vincaminic acid amides” (Synthelabo, priority 1974, dated 1977)
Like-named read-outs stand apart in the source and are kept apart here.

How the values were obtained:
[1] = Solubility in water (remark in preparation example); format: physicochemical; conditions: base
mice of strain CD1 = test: Anoxia test on mice under low (oxygen) pressure conditions; format: in vivo; conditions: Mus musculus, ip, intraperitoneally 10 minutes before the test, 190 mm of mercury (5.25% of oxygen), read-out: MAD (mean active dose, the dose which increases the survival time by 100%)
Experimental: Anoxia test on mice under low (oxygen) pressure conditions
Mice of strain CD1 are kept in an atmosphere depleted in oxygen, by producing a partial vacuum (190 mm of mercury, corresponding to 5.25% of oxygen).
The survival time of the animals is noted. This time is increased by agents capable of assisting tissue oxygenation and in particular cerebral oxygenation. The compounds studied are administered in several doses intraperitoneally 10 minutes before the test. The percentage increases in the survival time relative to the values obtained with control animals are calculated. The mean active dose (MAD), the dose which increases the survival time by 100%, is determined graphically.

[2] = Acute toxicity (LD50) in mice; format: in vivo; conditions: mouse, in vivo, mice, compounds tested in a solution containing ascorbic acid; for LD50 at 168 h: oral, mortality over 7 days
Experimental: (§1) The compounds were administered orally to mice of the CD1 strain. The mortality was recorded over 7 days and the 50% lethal doses (LD50) were determined graphically.
(§2) The toxicities on intraperitoneal and intravenous administration were determined in accordance with the method of Miller and Taniter (Proc. Soc. Exp. Biol. Med. 1944- vol 57, page 261).

mice of the CD1 strain = test: Acute toxicity (LD50) in mice; format: in vivo
Experimental: as §1, §2

[3] = ip, intraperitoneal, read-out: LD50 intraperitoneal
[4] = intravenous, read-out: LD50 intravenous

In the case of `CCC12CCCN3CCc4c(n(c5ccccc45)C(C(=O)NC4CCCCC4)C1)C32` (stereo not shown) [S.L.D. 135, N-cyclohexyldesoxyvincaminamide], the water solubility [1] is reported as “water-insoluble”.
`CCC12CCCN3CCc4c(n(c5ccccc45)C(C(N)=O)C1)C32` (stereo not shown) [SLC 156, Desoxyvincaminamide] showed an ED (100% increase in survival time) (mice of strain CD1) of 1.8 mg/kg, an LD50 [2, 3] of 210 mg/kg and an LD50 [2, 4] of 109 mg/kg. For the same compound, the LD50 at 168 h [2] was 607 mg/kg.
For `CCC12CCCN3CCc4c(n(c5ccccc45)C(C(=O)NC4CC4)C1)C32` (stereo not shown) [SLD 105, N-cyclopropyldesoxyvincaminamide], the ED (100% increase in survival time) (mice of strain CD1) was 1 mg/kg, the water solubility [1] was “water-insoluble” and the LD50 [2, 3] was 165 mg/kg. For the same compound, the LD50 [2, 4] was 76 mg/kg, the LD50 at 168 h [2] was 290 mg/kg and the “resorption by the digestive tract” value (mice of the CD1 strain; inferred from oral/intravenous LD50 ratio) was “good”. For the same compound, the “ratio of the LD50 for oral administration to the LD50 for intravenous administration” value (mice of the CD1 strain; mice, oral/intravenous) was “low”.
`CCC12C=C(C(=O)NC3CC3)n3c4c(c5ccccc53)CCN(CCC1)C42` (stereo not shown) [SLD 121, N-monocyclopropylapovincaminamide] gave an ED (100% increase in survival time) (mice of strain CD1) of 2.5 mg/kg.
`CCC12CCCN3CCc4c(n(c5ccccc45)C(C(=O)NC4CCC4)C1)C32` (stereo not shown) [SLD 142, N-cyclobutyldesoxyvincaminamide] gave an ED (100% increase in survival time) (mice of strain CD1) of 0.5 mg/kg.
Work on `CC[C@]12CCCN3CCc4c(n(c5ccccc45)[C@@](O)(C(=O)OC)C1)[C@@H]32` [Vincamine, reference compound] yielded an ED (100% increase in survival time) (mice of strain CD1) of 8 mg/kg and an LD50 [2, 4] of 75 mg/kg.
